Data as given in patent US11390900B2, “Antimicrobial cartridges and processes for multiplexed antimicrobial susceptibility testing” (priority 2018, dated 2022).
Where two headings read alike, the source gives them in different places.

Key:
[1] = tested on: K. pneumoniae 700603; details: MIC range, K. pneumoniae 700603, Gram negative panel; cited from earlier work
[2] = tested on: E. coli 25922; details: MIC range, E. coli 25922, Gram negative panel; cited from earlier work
[3] = tested on: S. aureus 29213; details: cited from earlier work; for CLSI-Defined QC Range, screen result: S. aureus 29213, no growth @ 0.5/4 (Cli/Ery), @ 4 (cefoxitin), @ 256 (mupirocin)
[4] = tested on: S. aureus 43300; details: growth @ 4; cited from earlier work
[5] = tested on: E. faecalis 29212; details: cited from earlier work; for CLSI-Defined QC Range, screen result: E. faecalis 29212, no growth @ 100 48 hrs (streptomycin), @ 500 24 hrs (gentamicin); for CLSI-Defined QC Range: MIC range
[6] = tested on: E. faecalis 51299; details: growth @ 100 (streptomycin), @ 500 (gentamicin); cited from earlier work
[7] = tested on: patient sample microbes; assay: AST MIC results for antimicrobial panel 1 (384-well panel from Master Plate vs 96-well panel); format: cell-based; details: for MICs obtained from panel made from Master Plate: antimicrobial panel 1, 384 well patient cartridge; for MICs obtained from 96-well Antibiotic Panel: antimicrobial panel 1, standard 96 well AST assay plate
Source text: (§1) An assay setup comprises preparation of patient (target) cartridge by dispensing antimicrobials were from the master cartridge or intermediate serial dilution cartridges into one or more 384 reservoir patient cartridge, each antimicrobial in about 7 serial dilutions in triplicate, and covering the dynamic range of each antimicrobial that is known to be effective and therefore should be reported. The dilution range included the expected minimum inhibitory concentration (MIC) for each antimicrobial. But most importantly, dilution ranges, that is, antimicrobial concentrations beyond the range known to be effective are included in the patient cartridge as per the present invention.
(§2) The remaining reservoirs of the 384 well patient cartridge are utilized for setting up test controls: a no-antimicrobial control (negative control) was included for each antimicrobial compound; and a positive control was included for each antimicrobial set, where a microorganism that is not susceptible to the antimicrobial was added to the well. Each control set was also dispensed at least in duplicate per 384 well cartridge. Additional test controls may be included as deemed necessary by one of skill in the art. Equal amount of a patient sample was dispensed to each of the wells in the cartridge, except in the wells designated for no-sample control, if included. The patient cartridge was ready for determination of susceptibility of microbes from the patient sample to the twelve antimicrobials at the range of concentrations applied, simultaneously. Multiple such plates can be set up in parallel for testing samples from multiple patients, each patient sample per plate. An AST assay was performed on the prepared patient cartridges.
(§3) First, three master plates are loaded by the user onto chilled plate holders (set to 4° C.). These consist of one Broad Spectrum, one Gram-Positive and one Gram-Negative antibiotic plate. Next the bulk reagents and pipette tips are loaded on tube rack. Master and bulk reagent pipette tips and sample dilution tray are reloaded every 12 samples. For every set of tests, up to four Patient Samples in tubes and up to four 384-well Target Plates (Patient plate) are loaded.
(§4) Antibiotics are transferred from Broad Spectrum Master Plate to Target Plate(s). Antibiotics are “stamped” according to FIG. 10A-B. The inoculator tips should be placed back in the same position of the Broad Spectrum Tip Box for use on subsequent target plates, but should only be used for same antibiotics to avoid cross contamination.
(§5) Antimicrobials are transferred from Gram-Positive OR Gram-Negative Master Plate to Target Plate(s) and the antibiotics are “stamped” according to FIG. 11A-B. The inoculator should place tips back in the same position of the correct tip box for use on subsequent target plates. Good care is taken such that any cross contamination is prevented.
(§6) Using new tips from the Sample Tip Box, 50 μL of diluted patient sample are transferred into Target Plate according to Table Four, this is done with a “jet dispense” to avoid cross contamination. After the Patient Sample has been transferred to each well on the Target Plate, the tips should be disposed of to avoid cross contamination. The above steps are repeated for each additional Patient Sample and Target Plate.
(§7) Shown in Table 6 and Table 7, MIC results for antimicrobial panels 1 and 2 respectively using a master cartridge format and a 384 well patient cartridge (column 3) agrees reliably with that run by standard 96 well AST assay plate (right hand column).

[8] = tested on: patient sample microbes; assay: AST MIC results for antimicrobial panel 2 (384-well panel from Master Plate vs 96-well panel); format: cell-based; details: for MICs obtained from panel made from Master Plate: antimicrobial panel 2, 384 well patient cartridge; for MICs obtained from 96-well Antibiotic Panel: antimicrobial panel 2, standard 96 well AST assay plate
Source text: as §1, §2, §3, §4, §5, §6, §7

[9] = tested on: patient sample microbes; details: antimicrobial panel 1, MIC range; cited from earlier work
[10] = tested on: patient sample microbes; details: antimicrobial panel 2, MIC range; cited from earlier work
[11] = tested on: S. aureus BAA-1708; details: growth @ 256; cited from earlier work
[12] = E. faecalis 29212, Gram positive panel

CC1(C)S[C@@H]2[C@H](NC(=O)[C@H](N)c3ccc(O)cc3)C(=O)N2[C@H]1C(=O)O [Amoxicillin (alone), Amoxicillin]
CLSI-Defined QC Range [1]: >128 µg/mL

CO[C@@]1(NC(=O)Cc2cccs2)C(=O)N2C(C(=O)O)=C(COC(N)=O)CS[C@@H]21 [Cefoxitin]
CLSI-Defined QC Range [2]: 2 to 8 µg/mL
CLSI-Defined QC Range, screen result [3]: Negative (No growth
CLSI-Defined QC Range, screen result [4]: Positive (Growth @

C[C@H]1[C@H](NC(=O)/C(=N\OC(C)(C)C(=O)O)c2csc(N)n2)C(=O)N1S(=O)(=O)O [Aztreonam]
CLSI-Defined QC Range [2]: 0.06 to 0.25 µg/mL
CLSI-Defined QC Range [1]: 8 to 64 µg/mL

Gentamicin
CLSI-Defined QC Range, screen result [5]: Negative (No growth
CLSI-Defined QC Range ([5]; E. faecalis 29212, Gram negative panel): 4 to 16 µg/mL
CLSI-Defined QC Range [5, 12]: 4 to 16 µg/mL
CLSI-Defined QC Range, screen result [6]: Positive (Growth @

CC(C)(O/N=C(\C(=O)N[C@@H]1C(=O)N2C(C(=O)[O-])=C(C[n+]3ccccc3)CS[C@H]12)c1csc(N)n1)C(=O)O [Ceftazidime]
MICs obtained from panel made from Master Plate [7]: ≤ 1 µg/mL
MICs obtained from 96-well Antibiotic Panel [7]: 0.25 µg/mL
MICs obtained from panel made from Master Plate [8]: 4 µg/mL
MICs obtained from 96-well Antibiotic Panel [8]: 8 µg/mL
CLSI-Defined QC Range [1]: 16 to 64 µg/mL
CLSI-Defined QC Range ([3]; MIC range, S. aureus 29213, Gram negative panel): 4 to 16 µg/mL
Quality Control Range [9]: 0.06-0.5
Quality Control Range [10]: 4-16

C/C(=C\C(=O)OCCCCCCCCC(=O)O)C[C@@H]1OC[C@H](C[C@@H]2O[C@H]2[C@@H](C)[C@H](C)O)[C@@H](O)[C@H]1O [Mupirocin High Level Screen, Mupirocin]
CLSI-Defined QC Range, screen result [3]: Negative (No growth
CLSI-Defined QC Range, screen result [11]: Positive (Growth @

[H]/N=C(/N)N[C@H]1[C@H](O)[C@@H](O)[C@H](O[C@@H]2O[C@@H](C)[C@](O)(C=O)[C@H]2O[C@@H]2O[C@@H](CO)[C@H](O)[C@@H](O)[C@@H]2NC)[C@@H](N/C(N)=N\[H])[C@@H]1O [Streptomycin High Level Screen, Streptomycin]
CLSI-Defined QC Range, screen result [5]: Negative (No growth
CLSI-Defined QC Range, screen result [6]: Positive (Growth @

CC1(C)S[C@@H]2[C@H](NC(=O)[C@H](N)c3ccccc3)C(=O)N2[C@H]1C(=O)O [Ampicillin]
MICs obtained from panel made from Master Plate [7]: 4 µg/mL
MICs obtained from 96-well Antibiotic Panel [7]: 8 µg/mL
MICs obtained from panel made from Master Plate [8]: 1 µg/mL
MICs obtained from 96-well Antibiotic Panel [8]: 1 µg/mL
CLSI-Defined QC Range [2]: 2 to 8 µg/mL
CLSI-Defined QC Range [5, 12]: 0.5 to 2 µg/mL
CLSI-Defined QC Range [1]: >128 µg/mL
Quality Control Range [9]: 2-8
Quality Control Range [10]: 0.5-2
